Columns and labels:
Experiment in all cases: relative viability (nuclei count vs DMSO), 5 days (fraction); higher = more cells survive
Vemurafenib + OSI-027 = compound: CCCS(=O)(=O)Nc1ccc(F)c(C(=O)c2c[nH]c3ncc(-c4ccc(Cl)cc4)cc23)c1F [Vemurafenib] + COc1cccc2cc(-c3nc([C@H]4CC[C@H](C(=O)O)CC4)n4ncnc(N)c34)[nH]c12 [OSI-027] (partner 0.5 µM)
In short: (§1)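 One day after seeding in 1536-well plates, lung cancer cell lines were dosed by pin tool. Dosing was either single-drug or a fixed anchor-drug dose plus five library-drug doses (not always all listed) in √10 steps. After 5 days, nuclei were stained in one fix-and-stain step and counted on 4× images, and relative viability is the nuclei count of treated wells over that of vehicle wells, given as the median of duplicate plates.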

Alpelisib + Tozasertib = compound: Cc1nc(NC(=O)N2CCC[C@H]2C(N)=O)sc1-c1ccnc(C(C)(C)C(F)(F)F)c1 [Alpelisib] + Cc1cc(Nc2cc(N3CCN(C)CC3)nc(Sc3ccc(NC(=O)C4CC4)cc3)n2)n[nH]1 [Tozasertib] (partner 0.1 µM)
In short: as §1

Vemurafenib + Linsitinib = compound: CCCS(=O)(=O)Nc1ccc(F)c(C(=O)c2c[nH]c3ncc(-c4ccc(Cl)cc4)cc23)c1F [Vemurafenib] + C[C@]1(O)C[C@@H](c2nc(-c3ccc4ccc(-c5ccccc5)nc4c3)c3c(N)nccn32)C1 [Linsitinib] (partner 1 µM)
In short: as §1

OSI-027 + Pictilisib = compound: COc1cccc2cc(-c3nc([C@H]4CC[C@H](C(=O)O)CC4)n4ncnc(N)c34)[nH]c12 [OSI-027] + CS(=O)(=O)N1CCN(Cc2cc3nc(-c4cccc5[nH]ncc45)nc(N4CCOCC4)c3s2)CC1 [Pictilisib] (partner 1 µM)
In short: as §1

Cell Line | relative viability (Vemurafenib + OSI-027; first compound 0.03162 µM) | relative viability (Vemurafenib + OSI-027; first compound 0.1 µM) | relative viability (Vemurafenib + OSI-027; first compound 0.3162 µM) | relative viability (Vemurafenib + OSI-027; first compound 1 µM) | relative viability (Alpelisib + Tozasertib; first compound 0.04 µM) | relative viability (Alpelisib + Tozasertib; first compound 0.1265 µM) | relative viability (Alpelisib + Tozasertib; first compound 0.4 µM) | relative viability (Alpelisib + Tozasertib; first compound 1.265 µM) | relative viability (Alpelisib + Tozasertib; first compound 4 µM) | relative viability (Vemurafenib + Linsitinib; first compound 0.03162 µM) | relative viability (Vemurafenib + Linsitinib; first compound 0.1 µM) | relative viability (Vemurafenib + Linsitinib; first compound 0.3162 µM) | relative viability (Vemurafenib + Linsitinib; first compound 1 µM) | relative viability (OSI-027 + Pictilisib; first compound 0.01 µM) | relative viability (OSI-027 + Pictilisib; first compound 0.03162 µM) | relative viability (OSI-027 + Pictilisib; first compound 0.1 µM) | relative viability (OSI-027 + Pictilisib; first compound 0.3162 µM) | relative viability (OSI-027 + Pictilisib; first compound 1 µM)
201T | 0.757 | 0.78 | 0.776 | 0.497 | 0.934 | 0.918 | 0.917 | 0.838 | 0.8 | 0.994 | 0.969 | 1.06 | 0.989 | 0.688 | 0.683 | 0.667 | 0.553 | 0.541
A549 |  |  |  |  |  |  |  |  |  | 0.584 | 0.444 | 0.515 | 0.567 | 0.53 |  | 0.276 | 0.14 | 0.142
A-427 | 0.488 | 0.404 | 0.453 | 0.466 | 0.225 | 0.196 | 0.244 | 0.198 | 0.194 | 1.09 | 1.1 | 1.03 | 1.15 | 0.61 | 0.664 | 0.699 | 0.495 | 0.378
ABC-1 | 0.417 | 0.435 | 0.539 | 0.474 | 0.175 | 0.157 | 0.155 | 0.195 | 0.188 | 0.711 | 0.753 | 0.942 | 0.853 | 0.627 | 0.653 | 0.632 | 0.445 | 0.319
BEN | 0.27 | 0.267 |  | 0.265 | 0.552 | 0.443 | 0.571 | 0.521 | 0.484 | 0.913 | 0.921 | 0.683 | 0.724 | 0.59 | 0.472 | 0.371 | 0.328 | 0.272
CAL-12T | 0.542 | 0.461 | 0.801 | 0.503 | 0.295 | 0.308 | 0.246 | 0.212 | 0.317 | 0.723 | 0.549 | 1.02 | 0.819 | 0.401 | 0.394 | 0.315 | 0.299 | 0.294
COR-L23 | 0.662 | 0.777 | 0.579 | 0.646 | 0.205 | 0.208 | 0.218 | 0.19 | 0.13 | 0.774 | 0.733 | 0.789 | 1.01 | 0.834 | 0.877 | 0.668 | 0.459 | 0.171
COR-L 105 | 0.649 |  |  | 0.582 | 0.372 | 0.343 | 0.591 | 0.306 | 0.334 | 1 |  | 1.3 | 1.17 | 0.389 | 0.453 | 0.358 | 0.377 | 0.254
Calu-6 |  |  |  |  |  |  |  |  |  |  | 0.981 | 0.745 | 0.927 | 0.94 | 0.762 | 0.655 | 0.544 | 0.319
ChaGo-K-1 | 0.535 | 0.549 | 0.419 | 0.487 | 0.202 | 0.202 | 0.211 | 0.194 | 0.197 |  |  |  |  | 0.665 | 1.02 | 0.356 | 0.492 | 0.381
EBC-1 |  |  |  |  |  |  |  |  |  | 0.859 | 0.822 | 0.891 | 1.02 | 0.344 | 0.359 | 0.299 | 0.216 | 0.238
EKVX | 0.634 |  | 0.791 | 0.688 | 0.346 | 0.308 | 0.499 | 0.333 | 0.198 | 0.942 |  | 1.03 | 1.02 | 0.456 | 0.384 | 0.368 | 0.302 | 0.177
EMC-BAC-2 | 0.38 | 0.382 | 0.22 | 0.329 | 0.294 | 0.255 | 0.307 | 0.242 | 0.242 | 0.798 | 0.695 | 0.807 | 0.807 | 0.597 | 0.47 | 0.469 | 0.431 | 0.376
EPLC-272H | 0.268 | 0.219 | 0.275 | 0.243 | 0.256 | 0.326 | 0.513 | 0.203 | 0.173 | 1.03 | 0.824 | 1.14 | 1.11 | 0.287 | 0.308 | 0.296 | 0.316 | 0.215
H3255 | 0.582 |  | 0.583 | 0.565 | 0.702 | 0.683 | 0.767 | 0.431 | 0.438 | 1 |  | 0.757 | 0.983 | 0.466 | 0.471 | 0.441 | 0.379 | 0.24
HARA | 0.428 | 0.186 | 0.407 | 0.229 | 0.109 | 0.074 | 0.107 | 0.0657 | 0.0666 | 0.942 |  | 0.987 | 0.771 | 0.334 | 0.402 | 0.397 | 0.242 | 0.258
HCC-15 | 0.648 | 0.73 |  | 0.52 | 0.352 | 0.373 | 0.487 | 0.336 | 0.263 | 0.855 | 0.743 | 0.964 | 0.824 | 0.768 | 0.771 | 0.68 | 0.596 | 0.367
